pIC50: −log10 of the molar value. Read-outs that look alike come from different tables or passages of the source.
Columns and labels:
human HDAC1 = human HDAC1 (Homo sapiens (Human), UniProt Q13547)
human HDAC2 = human HDAC2 (Homo sapiens (Human), UniProt Q92769); experiment: HDAC2 inhibition assay (modified FLUOR DE LYS, 384-well); format: biochemical; conditions: […] enzyme, 40 μM substrate BML-KI104, 3 h pre-incubation; read-out: HDAC2 IC50
KARN cells (Jurkat 2C4) = experiment: cells; conditions: Homo sapiens
[1] = target: human HDAC3/SMRT heterodimer (Homo sapiens (Human), UniProt O15379)
human HDAC3/SMRT heterodimer, sequence (O15379 whole entry): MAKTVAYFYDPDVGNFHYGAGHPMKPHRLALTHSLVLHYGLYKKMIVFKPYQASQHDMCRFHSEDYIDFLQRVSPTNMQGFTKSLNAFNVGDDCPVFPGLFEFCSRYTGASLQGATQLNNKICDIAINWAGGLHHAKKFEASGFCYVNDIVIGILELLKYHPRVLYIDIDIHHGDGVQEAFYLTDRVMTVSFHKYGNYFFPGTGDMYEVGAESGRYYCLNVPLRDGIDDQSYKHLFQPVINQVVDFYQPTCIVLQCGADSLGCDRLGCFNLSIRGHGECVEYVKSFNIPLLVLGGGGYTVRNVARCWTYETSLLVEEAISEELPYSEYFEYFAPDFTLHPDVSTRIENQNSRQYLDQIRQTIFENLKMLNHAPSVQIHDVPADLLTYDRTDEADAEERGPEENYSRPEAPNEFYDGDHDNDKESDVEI
human HDAC3/SMRT heterodimer, sequence (Q9Y618 1-899 partner): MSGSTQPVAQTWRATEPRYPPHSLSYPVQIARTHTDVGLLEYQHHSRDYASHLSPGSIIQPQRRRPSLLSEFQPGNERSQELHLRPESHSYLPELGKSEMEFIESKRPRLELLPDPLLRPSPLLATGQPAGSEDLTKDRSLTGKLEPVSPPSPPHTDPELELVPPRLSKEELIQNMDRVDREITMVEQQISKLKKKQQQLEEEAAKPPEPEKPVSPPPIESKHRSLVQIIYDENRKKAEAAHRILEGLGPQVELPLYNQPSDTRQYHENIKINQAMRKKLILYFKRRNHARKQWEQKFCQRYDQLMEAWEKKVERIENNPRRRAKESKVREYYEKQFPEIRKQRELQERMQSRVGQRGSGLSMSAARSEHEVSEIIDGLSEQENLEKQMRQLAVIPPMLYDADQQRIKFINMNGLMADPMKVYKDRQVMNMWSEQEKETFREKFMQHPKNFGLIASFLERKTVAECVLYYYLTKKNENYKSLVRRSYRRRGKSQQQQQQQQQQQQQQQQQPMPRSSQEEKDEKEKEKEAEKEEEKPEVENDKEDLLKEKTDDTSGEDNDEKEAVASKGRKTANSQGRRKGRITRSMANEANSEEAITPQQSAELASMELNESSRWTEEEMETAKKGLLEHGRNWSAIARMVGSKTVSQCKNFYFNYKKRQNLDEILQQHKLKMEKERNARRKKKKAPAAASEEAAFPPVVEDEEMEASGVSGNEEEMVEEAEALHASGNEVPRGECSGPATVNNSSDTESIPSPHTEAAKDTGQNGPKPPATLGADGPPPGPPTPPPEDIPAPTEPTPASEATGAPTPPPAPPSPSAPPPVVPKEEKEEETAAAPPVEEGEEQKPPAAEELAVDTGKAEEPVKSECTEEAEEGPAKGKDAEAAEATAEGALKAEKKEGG

HDAC6 = HDAC6 (Homo sapiens (Human), UniProt Q9UBN7)
HDAC6, sequence (Q9UBN7 whole entry): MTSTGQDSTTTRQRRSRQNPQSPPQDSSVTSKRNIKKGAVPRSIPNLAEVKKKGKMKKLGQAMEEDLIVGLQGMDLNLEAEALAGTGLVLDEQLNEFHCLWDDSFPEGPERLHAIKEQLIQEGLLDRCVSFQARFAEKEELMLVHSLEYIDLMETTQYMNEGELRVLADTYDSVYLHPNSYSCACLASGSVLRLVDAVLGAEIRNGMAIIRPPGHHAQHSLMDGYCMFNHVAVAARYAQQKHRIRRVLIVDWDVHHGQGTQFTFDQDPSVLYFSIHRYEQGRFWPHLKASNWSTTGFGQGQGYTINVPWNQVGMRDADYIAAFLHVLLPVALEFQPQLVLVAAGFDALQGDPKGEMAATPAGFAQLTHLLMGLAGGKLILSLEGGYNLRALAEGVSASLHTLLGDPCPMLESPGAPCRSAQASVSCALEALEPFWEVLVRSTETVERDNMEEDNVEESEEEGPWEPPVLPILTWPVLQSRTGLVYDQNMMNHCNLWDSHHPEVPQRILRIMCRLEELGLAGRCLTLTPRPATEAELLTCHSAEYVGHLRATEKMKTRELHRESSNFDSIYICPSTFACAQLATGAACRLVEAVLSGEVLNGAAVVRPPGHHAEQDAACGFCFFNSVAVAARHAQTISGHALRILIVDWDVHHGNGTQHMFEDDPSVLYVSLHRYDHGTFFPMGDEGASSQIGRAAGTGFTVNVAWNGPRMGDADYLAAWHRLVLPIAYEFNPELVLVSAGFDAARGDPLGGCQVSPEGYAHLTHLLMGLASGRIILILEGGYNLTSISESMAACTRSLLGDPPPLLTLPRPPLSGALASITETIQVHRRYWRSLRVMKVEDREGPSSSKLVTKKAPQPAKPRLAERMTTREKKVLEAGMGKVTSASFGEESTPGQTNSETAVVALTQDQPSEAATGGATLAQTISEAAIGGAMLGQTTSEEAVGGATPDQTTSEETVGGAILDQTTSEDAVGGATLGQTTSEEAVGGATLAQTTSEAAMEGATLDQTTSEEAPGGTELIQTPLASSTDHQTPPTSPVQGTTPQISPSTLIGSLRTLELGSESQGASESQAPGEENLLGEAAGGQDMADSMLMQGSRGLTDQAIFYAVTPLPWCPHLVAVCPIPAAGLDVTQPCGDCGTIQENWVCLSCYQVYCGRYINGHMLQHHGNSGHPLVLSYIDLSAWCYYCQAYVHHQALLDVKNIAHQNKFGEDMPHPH

human HDAC8 = human HDAC8 (Homo sapiens (Human), UniProt Q9BY41); experiment: HDAC8 inhibition assay (modified FLUOR DE LYS, 384-well); format: biochemical; conditions: […] enzyme, 200 μM substrate BML-KI178, 3 h pre-incubation; read-out: HDAC8 IC50
human HDAC8, sequence (Q9BY41 whole entry): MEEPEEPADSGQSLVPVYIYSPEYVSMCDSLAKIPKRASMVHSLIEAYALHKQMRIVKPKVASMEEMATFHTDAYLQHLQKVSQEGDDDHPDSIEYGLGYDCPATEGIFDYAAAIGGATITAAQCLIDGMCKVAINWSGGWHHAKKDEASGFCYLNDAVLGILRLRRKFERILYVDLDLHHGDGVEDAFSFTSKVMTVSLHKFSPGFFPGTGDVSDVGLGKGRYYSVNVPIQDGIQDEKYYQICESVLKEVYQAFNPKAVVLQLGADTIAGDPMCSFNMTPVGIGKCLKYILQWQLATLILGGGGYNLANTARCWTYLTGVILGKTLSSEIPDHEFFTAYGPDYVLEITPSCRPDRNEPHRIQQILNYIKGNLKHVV
Protocol: The histone deacetylase activities of HDAC1, HDAC2, HDAC3, HDAC6, and HDAC8 were measured in modified FLUOR DE LYS assays in 384-well format. In this assay, HDAC enzymes are initially incubated with an F-acetyl (or -trifluoroacetyl)-L-lysine-containing substrate with a C-terminal amide having aminomethylcoumarin as the amine component. HDACs cleave the F-acetyl group, rendering the resulting product susceptible to AMC cleavage by trypsin. The released AMC is then detected by its fluorescence. […] All steps were performed at room temperature (23° C.). The assay was performed by pre-incubating serial dilutions of test compounds with the target HDAC prior to initiation with substrate. […] Final conditions used for each assay were: 1. […] The reactions were stopped and developed by addition of 30 ul of HDAC developer solution containing a saturating level of HDAC inhibitor as follows: 1. […] For data analysis, background subtracted product (fluorescence) vs. time data for each inhibitor concentration was fitted using a 4-parameter fit.

[2] = read-out: Karn EC50 nM 0.1% NHS, 0.1% normal human serum, luciferase induction, 2 μM SAHA = 100%
[3] = read-out: Karn EC50 nM 5% NHS, 5% normal human serum, luciferase induction, 2 μM SAHA = 100%

human HDAC1, sequence (Q13547 whole entry): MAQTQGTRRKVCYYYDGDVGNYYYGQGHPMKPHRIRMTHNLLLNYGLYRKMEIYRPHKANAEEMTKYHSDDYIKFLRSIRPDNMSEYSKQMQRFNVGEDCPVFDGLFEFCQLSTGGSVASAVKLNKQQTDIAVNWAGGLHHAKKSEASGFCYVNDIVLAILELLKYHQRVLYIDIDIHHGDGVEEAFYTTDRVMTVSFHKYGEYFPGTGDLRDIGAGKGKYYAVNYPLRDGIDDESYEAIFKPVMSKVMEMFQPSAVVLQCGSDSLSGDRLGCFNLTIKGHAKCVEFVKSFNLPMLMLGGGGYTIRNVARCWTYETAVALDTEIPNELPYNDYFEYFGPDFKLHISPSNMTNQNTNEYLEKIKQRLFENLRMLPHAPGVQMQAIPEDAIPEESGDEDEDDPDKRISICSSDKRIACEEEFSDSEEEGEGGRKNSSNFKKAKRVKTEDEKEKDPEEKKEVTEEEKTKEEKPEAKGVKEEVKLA
human HDAC2, sequence (Q92769 whole entry): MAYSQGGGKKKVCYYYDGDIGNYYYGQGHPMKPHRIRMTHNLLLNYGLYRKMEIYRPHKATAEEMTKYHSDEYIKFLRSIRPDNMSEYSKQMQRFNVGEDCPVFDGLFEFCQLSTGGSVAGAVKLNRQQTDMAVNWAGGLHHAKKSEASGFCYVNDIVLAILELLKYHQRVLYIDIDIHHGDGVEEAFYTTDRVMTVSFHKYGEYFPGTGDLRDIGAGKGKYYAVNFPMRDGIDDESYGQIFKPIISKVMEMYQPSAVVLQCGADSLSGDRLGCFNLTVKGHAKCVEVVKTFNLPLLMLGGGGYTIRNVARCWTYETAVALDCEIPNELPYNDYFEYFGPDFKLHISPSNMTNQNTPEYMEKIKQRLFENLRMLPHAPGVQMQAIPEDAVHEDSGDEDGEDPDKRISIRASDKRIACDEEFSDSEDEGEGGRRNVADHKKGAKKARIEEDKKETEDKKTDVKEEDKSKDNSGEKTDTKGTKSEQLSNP

| SMILES | pIC50 (human HDAC1) | pIC50 (human HDAC2) | EC50 (KARN cells (Jurkat 2C4); [2]) [nM] | EC50 (KARN cells (Jurkat 2C4); [3]) [nM] | pIC50 [1] | pIC50 (HDAC6) | pIC50 (human HDAC8) |
| --- | --- | --- | --- | --- | --- | --- | --- |
| COc1cc2c(ccc(=O)n2C)cc1-c1cnc([C@H](CCCCCC(=O)c2ccon2)NC(=O)C2CN(C)C2)[nH]1 [Example 102, (S)-N-(7-(isoxazol-3-yl)-1-(5-(7-methoxy-1-methyl-2-oxo-1,2-dihydroquinolin-6-yl)-1H-imidazol-2-yl)-7-oxoheptyl)-1-methylazetidine-3-carboxamide] | 9.62 | 9.11 | 170 | 270 | 9.60 | < 6.05 | 8.51 |
| N[C@@H](CCCCCC(=O)c1ncco1)c1ncc(-c2ccc3nc(N4CCCC4)ccc3c2)[nH]1 [Example 19] | 8.70 | 8.03 | 210 | 420 | 8.82 | < 5.82 | 5.44 |
| N[C@@H](CCCCCC(=O)c1ncco1)c1ncc(-c2cccc(C(F)(F)F)c2F)[nH]1 [Example 138, (7S)-7-amino-7-{5-[2-fluoro-3-(trifluoromethyl)phenyl]-1H-imidazol-2-yl}-1-(1,3-oxazol-2-yl)heptan-1-one] | 8.37 | 7.43 | 2200 | 3400 | 8.41 | < 6.05 | 6.60 |
| COc1cc2nc(C)ccc2cc1-c1cnc([C@H](CCCCCC(=O)c2ncco2)NC(=O)c2cc3ccccn3n2)[nH]1 [Example 167, N-[(1S)-1-[5-(7-methoxy-2-methylquinolin-6-yl)-1H-imidazol-2-yl]-7-(1,3-oxazol-2-yl)-7-oxoheptyl]pyrazolo[1,5-a]pyridine-2-carboxamide] | 8.66 | 7.89 | 83 | 400 | 9.23 | < 6.05 | 7.20 |
| CN(C)C1(C(=O)N[C@@H](CCCCCC(=O)c2ccon2)c2ncc(-c3ccccc3F)[nH]2)CCCC1 [Example 64] | 9.24 | 8.68 | 16 | 28 | 9.19 | < 6.05 | 8.46 |
| COc1cc2nc(C)ccc2cc1-c1cnc([C@H](CCCCCC(=O)c2ncco2)NC(=O)Cn2cccc2)[nH]1 [Example 162, N-[(1S)-1-[5-(7-methoxy-2-methylquinolin-6-yl)-1H-imidazol-2-yl]-7-(1,3-oxazol-2-yl)-7-oxoheptyl]-2-(1H-pyrrol-1-yl)acetamide] | 8.38 | 7.62 | 650 | 1200 | 8.82 | < 6.05 | 6.52 |
| COc1nc(C2CC2)ccc1-c1c[nH]c([C@H](CCCCCC(=O)c2ncco2)NC(=O)[C@H]2CC23CCN(C)CC3)n1 [Example 115, (S)-N-((S)-1-(4-(6-cyclopropyl-2-methoxypyridin-3-yl)-1H-imidazol-2-yl)-7-(oxazol-2-yl)-7-oxoheptyl)-6-methyl-6-azaspiro[2.5]octane-1-carboxamide] | 9.18 | 8.41 | 37 | 58 | 9.08 | 6.52 | 7.29 |
| COc1nc2ccccc2cc1-c1cnc([C@H](CCCCCC(=O)c2ncco2)NC(=O)C2COCCO2)[nH]1 (stereo partly drawn) [Example 152, N-[(1S)-1-[5-(2-methoxyquinolin-3-yl)-1H-imidazol-2-yl]-7-(1,3-oxazol-2-yl)-7-oxoheptyl]-1,4-dioxane-2-carboxamide] | 9.17 | 8.24 | 49 | 350 | 8.80 | 4.92 | 7.11 |
| COc1nc2ccccc2cc1-c1cnc([C@H](CCCCCC(=O)c2ncco2)NC(=O)c2cncs2)[nH]1 [Example 42] | 8.77 | 8.27 | 52 | 340 | 8.82 | 4.89 | 7.57 |
| CC(C)n1ccc2cc(-c3cnc([C@@H](N)CCCCCC(=O)c4ncco4)[nH]3)ccc2c1=O [Example 17] | 8.68 | 7.77 | 650 | 590 | 8.39 | 4.35 | 5.54 |
| CCn1ccc2cc(-c3cnc([C@H](CCCCCC(=O)c4ncco4)NC(=O)CN(C)C)[nH]3)c(OC)cc2c1=O [Example 96, (S)-2-(dimethylamino)-N-(1-(5-(2-ethyl-7-methoxy-1-oxo-1,2-dihydroisoquinolin-6-yl)-1H-imidazol-2-yl)-7-(oxazol-2-yl)-7-oxoheptyl)acetamide] | 9.29 | 8.42 | 14 | 24 | 9.03 | 6.04 | 7.24 |
| CN1CCC2(CC1)C[C@@H]2C(=O)N[C@@H](CCCCCC(=O)c1ccon1)c1nc(Cl)c(-c2ccc(F)cc2)[nH]1 [Example 195, (S)-N-((S)-1-(4-chloro-5-(4-fluorophenyl)-1H-imidazol-2-yl)-7-(isoxazol-3-yl)-7-oxoheptyl)-6-methyl-6-azaspiro[2.5]octane-1-carboxamide 2,3-dihydroxysuccinate] | 9.85 | 9.49 | 1.4 | 1.9 | 10.34 | 5.51 | 8.02 |
| CN1CCC2(CC1)C[C@@H]2C(=O)N[C@@H](CCCCCC(=O)c1ccon1)c1[nH]c(-c2ccccc2F)nc1Cl [Example 112, (S)-N-((S)-1-(4-chloro-2-(2-fluorophenyl)-1H-imidazol-5-yl)-7-(isoxazol-3-yl)-7-oxoheptyl)-6-methyl-6-azaspiro[2.5]octane-1-carboxamide] | 10.08 | 9.60 | 1.4 | 1.4 | 10.46 | 5.34 | 7.64 |
| COc1cc2nc(C)ccc2cc1-c1cnc([C@H](CCCCCC(=O)c2cc(C)on2)NC(=O)CN(C)C)[nH]1 [Example 56] | 9.40 | 8.74 | 6.4 | 11 | 9.43 | 4.35 | 6.51 |
| COc1cc2c(ccc(=O)n2C)cc1-c1cnc([C@@H](N)CCCCCC(=O)c2ncco2)[nH]1 [Example 21] | 8.72 | 8.08 | 110 | 110 | 8.82 | < 5.35 | 6.31 |
| COc1cc2nc(C)ccc2cc1-c1cnc([C@H](CCCCCC(=O)c2ncco2)NC(=O)C2CCCCO2)[nH]1 (stereo partly drawn) [Example 168, N-[(1S)-1-[5-(7-methoxy-2-methylquinolin-6-yl)-1H-imidazol-2-yl]-7-(1,3-oxazol-2-yl)-7-oxoheptyl]tetrahydro-2H-pyran-2-carboxamide] | 8.52 | 7.92 | 100 | 200 | 8.92 | < 6.05 | 6.92 |
| COc1cc2nc(C)ccc2cc1-c1cnc([C@H](CCCCCC(=O)c2ccon2)NC(=O)C2CN(C)C2)[nH]1 [Example 103, (S)-N-(7-(isoxazol-3-yl)-1-(5-(7-methoxy-2-methylquinolin-6-yl)-1H-imidazol-2-yl)-7-oxoheptyl)-1-methylazetidine-3-carboxamide] | 9.89 | 9.36 | 6 | 8.3 | 9.74 | < 6.05 | 8.52 |

From patent US12331044B2, “Inhibitors of histone deacetylase useful for the treatment or prevention of HIV infection” (Merck Sharp & Dohme LLC, priority 2018, dated 2025)
